From publication PMC11057469, “Quantitative cross-species comparison of serum albumin binding of per- and polyfluoroalkyl substances from five structural classes” (Toxicological Sciences, 2024)
Read-outs that look alike come from different tables or passages of the source.

Columns and labels:
Rat serum albumin (RSA) = Rat serum albumin (RSA) (Rattus norvegicus, UniProt P02770); test: in vitro; conditions: for ΔTm: rat, pH 7.4; for difference in binding affinity, RSA affinity greater than HSA: RSA compared with HSA, from DSF Kd
Procedure: (§1) Serum albumin stocks (1 mM) were prepared by reconstituting lyophilized stocks in HBS, with expected protein concentrations confirmed using the colorimetric Bio-Rad DC Protein Assay (Hercules, California).
(§2) A minimum of 2 independent plates were run for each protein-ligand combination, with 3 replicates per sample on each plate. Controls on each plate included a no protein control, matching vehicle control (no ligand), and 3 concentrations of OA (1, 2, 3 mM) and/or PFHxA (0.3, 1, 3 mM) as positive controls. The concentration of albumin that yielded maximal signal-to-noise ratio was optimized for each species. […] For concentration-response analyses, PFAS stock solutions were serially diluted into HBS.

[1] = target: human serum albumin (HSA) (Homo sapiens, UniProt P02768); test: in vitro
Procedure: as §1, §2

[2] = target: porcine serum albumin (PSA) (Sus scrofa, UniProt P08835); test: in vitro; conditions: for ΔTm: pig, pH 7.4
Procedure: as §1, §2

[3] = target: Bovine serum albumin (BSA) (Bos taurus, UniProt P02769); test: in vitro; conditions: for difference in binding affinity, BSA affinity lower than HSA: BSA compared with HSA; for ΔTm: bovine, pH 7.4
Procedure: as §2

[4] = pig, after oral exposure; ref Fasano et al., 2006; Xie et al., 2020; cited from earlier work
[5] = rat, after oral exposure; ref Fasano et al., 2006; Xie et al., 2020; cited from earlier work
[6] = elimination half-life in serum/plasma, Rat, cited from earlier work
[7] = elimination half-life in serum/plasma, Human, cited from earlier work
[8] = set-up: method as in Numata et al., 2014; conditions: elimination half-life in serum/plasma, Pig; ref Numata et al., 2014; cited from earlier work
[9] = set-up: method as in Death et al., 2021; conditions: elimination half-life in serum/plasma, Cow; ref Death et al., 2021; cited from earlier work
[10] = RSA, 1 = highest relative affinity, 4 = lowest
[11] = HSA, 1 = highest relative affinity, 4 = lowest
[12] = PSA, 1 = highest relative affinity, 4 = lowest
[13] = BSA, 1 = highest relative affinity, 4 = lowest
[14] = PSA compared with HSA, from DSF Kd

Chain of Rat serum albumin (RSA) (P02770 25-608): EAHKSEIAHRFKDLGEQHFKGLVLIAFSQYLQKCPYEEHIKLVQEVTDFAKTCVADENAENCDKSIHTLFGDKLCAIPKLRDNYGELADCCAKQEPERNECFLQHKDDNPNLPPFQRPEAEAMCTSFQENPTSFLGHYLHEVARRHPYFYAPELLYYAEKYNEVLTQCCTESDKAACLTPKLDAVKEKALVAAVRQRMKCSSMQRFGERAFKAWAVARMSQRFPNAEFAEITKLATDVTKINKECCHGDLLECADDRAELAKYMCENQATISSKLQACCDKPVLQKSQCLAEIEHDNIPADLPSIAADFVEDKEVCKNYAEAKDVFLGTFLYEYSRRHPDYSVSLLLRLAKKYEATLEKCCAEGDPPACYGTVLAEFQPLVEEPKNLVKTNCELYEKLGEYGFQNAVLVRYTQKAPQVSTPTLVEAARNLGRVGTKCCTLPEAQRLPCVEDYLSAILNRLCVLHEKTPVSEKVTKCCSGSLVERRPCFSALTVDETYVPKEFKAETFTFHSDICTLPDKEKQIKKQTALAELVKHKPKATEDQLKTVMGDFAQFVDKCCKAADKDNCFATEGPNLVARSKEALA
Chain of porcine serum albumin (PSA) (P08835 25-607): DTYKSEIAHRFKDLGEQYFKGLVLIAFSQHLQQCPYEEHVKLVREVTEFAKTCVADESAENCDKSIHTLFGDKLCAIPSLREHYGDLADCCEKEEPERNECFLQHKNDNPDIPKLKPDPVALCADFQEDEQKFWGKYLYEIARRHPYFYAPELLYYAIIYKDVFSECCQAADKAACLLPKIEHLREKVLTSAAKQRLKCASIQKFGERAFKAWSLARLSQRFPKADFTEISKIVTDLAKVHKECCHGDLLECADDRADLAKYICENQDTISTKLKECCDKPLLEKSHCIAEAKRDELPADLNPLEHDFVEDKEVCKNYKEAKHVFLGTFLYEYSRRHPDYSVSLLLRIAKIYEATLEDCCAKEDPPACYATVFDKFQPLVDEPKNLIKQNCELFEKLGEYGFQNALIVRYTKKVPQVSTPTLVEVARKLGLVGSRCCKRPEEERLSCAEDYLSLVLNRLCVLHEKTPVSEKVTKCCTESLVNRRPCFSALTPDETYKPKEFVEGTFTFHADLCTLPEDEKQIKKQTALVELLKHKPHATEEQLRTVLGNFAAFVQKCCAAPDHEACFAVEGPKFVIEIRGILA
Chain of Bovine serum albumin (BSA) (P02769 25-607): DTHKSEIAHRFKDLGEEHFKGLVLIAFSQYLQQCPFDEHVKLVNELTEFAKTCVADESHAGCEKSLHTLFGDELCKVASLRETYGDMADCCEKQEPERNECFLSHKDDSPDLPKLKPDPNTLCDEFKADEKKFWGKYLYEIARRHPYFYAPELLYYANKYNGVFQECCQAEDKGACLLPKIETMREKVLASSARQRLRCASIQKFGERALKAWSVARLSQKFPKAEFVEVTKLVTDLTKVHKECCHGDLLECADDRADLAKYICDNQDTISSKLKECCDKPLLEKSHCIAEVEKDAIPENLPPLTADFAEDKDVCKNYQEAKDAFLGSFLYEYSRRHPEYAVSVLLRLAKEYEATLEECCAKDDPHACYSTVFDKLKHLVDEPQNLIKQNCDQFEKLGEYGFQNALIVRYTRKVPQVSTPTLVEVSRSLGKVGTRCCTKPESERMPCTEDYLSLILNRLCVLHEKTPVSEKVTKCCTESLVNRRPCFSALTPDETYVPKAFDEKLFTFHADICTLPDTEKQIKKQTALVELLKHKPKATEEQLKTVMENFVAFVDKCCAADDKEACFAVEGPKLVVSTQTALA
Chain of human serum albumin (HSA) (P02768 25-609): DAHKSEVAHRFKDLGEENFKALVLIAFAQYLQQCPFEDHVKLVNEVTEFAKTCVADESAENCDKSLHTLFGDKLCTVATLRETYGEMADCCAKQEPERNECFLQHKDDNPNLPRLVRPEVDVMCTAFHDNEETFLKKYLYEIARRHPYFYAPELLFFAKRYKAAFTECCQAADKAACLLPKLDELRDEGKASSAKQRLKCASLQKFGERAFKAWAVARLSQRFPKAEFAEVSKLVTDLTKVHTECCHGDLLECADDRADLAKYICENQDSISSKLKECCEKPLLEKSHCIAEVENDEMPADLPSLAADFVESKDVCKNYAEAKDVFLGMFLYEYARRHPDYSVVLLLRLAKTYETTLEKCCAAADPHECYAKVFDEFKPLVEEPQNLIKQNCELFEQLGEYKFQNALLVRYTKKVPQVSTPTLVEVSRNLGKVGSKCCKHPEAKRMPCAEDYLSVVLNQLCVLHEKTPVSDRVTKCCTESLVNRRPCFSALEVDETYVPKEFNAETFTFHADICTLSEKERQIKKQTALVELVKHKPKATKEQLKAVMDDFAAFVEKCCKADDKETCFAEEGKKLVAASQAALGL

SMILES	rank order of binding affinity among the four albumins (Rat serum albumin (RSA); [10])	rank order of binding affinity among the four albumins [1, 11]	rank order of binding affinity among the four albumins [2, 12]	Kd [3] [µM]	difference in binding affinity, BSA affinity lower than HSA ([3]; from DSF Kd) [%]	rank order of binding affinity among the four albumins [3, 13]	Kd (Rat serum albumin (RSA)) [µM]	Kd [1] [µM]	Kd [2] [µM]	difference in binding affinity, PSA affinity greater than HSA [2, 14] [%]	Half-life ([6]; ref Pizzurro et al., 2019)	Half-life ([7]; ref Pizzurro et al., 2019)	Half-life [8]	also measured
OCCC(F)(F)C(F)(F)C(F)(F)C(F)(F)C(F)(F)C(F)(F)F [6:2 FTOH, 1H, 1H, 2H, 2H-perfluorooctanol]	–	–	–	–	–	–	–	–	–	–	–	–	–	ΔTm, maximum change in melting temperature (Rat serum albumin (RSA); RSA 0.18 mM, DSF, value (±SEM), N/A = nonbinding): no changes in albumin TM were detected; ΔTm, maximum change in melting temperature ([1]; HSA 0.13 mM, DSF, value (±SEM), N/A = nonbinding): no changes in albumin TM were detected; ΔTm, maximum change in melting temperature ([2]; PSA 0.11 mM, DSF, value (±SEM), N/A = nonbinding): no changes in albumin TM were detected; ΔTm, maximum change in melting temperature ([3]; BSA 0.18 mM, DSF, value (±SEM), N/A = nonbinding): no changes in albumin TM were detected
O=S(=O)(O)CCC(F)(F)C(F)(F)C(F)(F)C(F)(F)C(F)(F)C(F)(F)F [6:2 FTSA, 2H, 2H, 3H, 3H-perfluorooctane-1-sulfonate]	1	2	3	1390	108.9	4	–	–	–	–	–	–	–	ΔTm (Rat serum albumin (RSA)): 7.99 °C; ΔTm ([1]; human, pH 7.4): 3.53 °C; ΔTm [2]: 8.72 °C; ΔTm [3]: 17.2 °C
OCCC(F)(F)C(F)(F)C(F)(F)C(F)(F)C(F)(F)C(F)(F)C(F)(F)C(F)(F)F [8:2 FTOH]	–	–	–	–	–	–	–	–	–	–	–	–	–	accumulation in tissues [4]: did not accumulate; accumulation in tissues [5]: did not accumulate
O=C(O)C(F)(OC(F)(F)C(F)(F)C(F)(F)F)C(F)(F)F (centres unmarked) [HFPO-DA, hexafluoropropylene oxide-dimer acid]	2	1	3	2550	47.6	4	1640	1570	2120	–	–	–	–	difference in binding affinity, HSA affinity greater than PSA ([2]; HSA compared with PSA, from DSF Kd): 29.8%
O=C(O)C(F)(F)C(F)(F)C(F)(F)F [PFBA, Perfluorobutanoic acid]	2	3	1	3060	–	4	1900	2640	1280	69.4	1–9.2 h^a	3.1 days^a	–	–
O=S(=O)(O)C(F)(F)C(F)(F)C(F)(F)C(F)(F)F [PFBS, perfluorobutanesulfonic acid]	3	4	2	–	–	1	1410	1680	1250	29.4	0.6–7.4 h^a	25.8 days^a	43 days^d	difference in binding affinity, RSA affinity greater than HSA (Rat serum albumin (RSA)): 17.5%; difference in binding affinity, HSA affinity lower than BSA ([3]; HSA compared with BSA, from DSF Kd): 71.0%
O=C(O)C(F)(F)C(F)(F)C(F)(F)C(F)(F)C(F)(F)F [PFHxA, Perfluorohexanoic acid]	2	3	1	2170	23.7	4	1330	1710	950	57.1	–	–	4.1 days^d	Half-life ([6]; ref Russell et al., 2013): 0.4–9.8 h^e; Half-life ([7]; ref Lau, 2015): 32 days^b
O=C(O)C(F)(F)C(F)(F)C(F)(F)C(F)(F)C(F)(F)C(F)(F)C(F)(F)F [PFOA, perfluorooctanoic acid]	2	3	1	990	22.5	4	400	790	370	72.4	0.1–15 days^a	2.3–8.5 years^a	236 days^d	difference in binding affinity, RSA affinity greater than HSA (Rat serum albumin (RSA)): 65.5%; binding affinity of 8-carbon congener greater than 4-carbon congener (Rat serum albumin (RSA); RSA, PFOA vs PFBA, PFOS vs PFBS): 130.4%; binding affinity of 8-carbon congener greater than 4-carbon congener ([1]; HSA, PFOA vs PFBA, PFOS vs PFBS): 107.9%; binding affinity of 8-carbon congener greater than 4-carbon congener ([2]; PSA, PFOA vs PFBA, PFOS vs PFBS): 110.3%; Half-life [9]: 0.8–1.3 days^c; binding affinity of 8-carbon congener greater than 4-carbon congener ([3]; BSA, PFOA vs PFBA): 102.2%
O=S(=O)(O)C(F)(F)C(F)(F)C(F)(F)C(F)(F)C(F)(F)C(F)(F)C(F)(F)C(F)(F)F [PFOS, perfluorooctanesulfonic acid]	–	–	–	–	–	–	–	690	–	–	24–83 days^a	3.3–5.4 years^a	1.7 years^d	binding affinity of 8-carbon congener greater than 4-carbon congener (Rat serum albumin (RSA)): 108.2%; rank order of binding affinity among the four albumins (Rat serum albumin (RSA)): 2; ΔTm (Rat serum albumin (RSA)): 4.76 °C; binding affinity of 8-carbon congener greater than 4-carbon congener [1]: 83.5%; rank order of binding affinity among the four albumins [1]: 3; Kd ([1]; human, pH 7.4): 620 µM; ΔTm ([1]; human, pH 7.4): 15.9 °C; binding affinity of 8-carbon congener greater than 4-carbon congener [2]: 106.7%; difference in binding affinity, PSA affinity greater than HSA [2]: 57.9%; rank order of binding affinity among the four albumins [2]: 1; ΔTm [2]: 5.74 °C; Half-life [9]: 39–120 days^c; hill slope of the biphasic melt curve [3]: 3.5 ± 0.3; rank order of binding affinity among the four albumins [3]: 4; ΔTm [3]: 15.3 °C
